Results taken from article PMC12365235, “Molecular mechanisms of thiazide-like diuretics-mediated inhibition of the human Na-Cl cotransporter” (Nature Communications, 2025).

Biological target: T1, hNCC(N149A) (Homo sapiens, UniProt P55017, N149A)
T1 construct: expressed in transfected cells
T1 sequence (P55017 1-1021 N149A): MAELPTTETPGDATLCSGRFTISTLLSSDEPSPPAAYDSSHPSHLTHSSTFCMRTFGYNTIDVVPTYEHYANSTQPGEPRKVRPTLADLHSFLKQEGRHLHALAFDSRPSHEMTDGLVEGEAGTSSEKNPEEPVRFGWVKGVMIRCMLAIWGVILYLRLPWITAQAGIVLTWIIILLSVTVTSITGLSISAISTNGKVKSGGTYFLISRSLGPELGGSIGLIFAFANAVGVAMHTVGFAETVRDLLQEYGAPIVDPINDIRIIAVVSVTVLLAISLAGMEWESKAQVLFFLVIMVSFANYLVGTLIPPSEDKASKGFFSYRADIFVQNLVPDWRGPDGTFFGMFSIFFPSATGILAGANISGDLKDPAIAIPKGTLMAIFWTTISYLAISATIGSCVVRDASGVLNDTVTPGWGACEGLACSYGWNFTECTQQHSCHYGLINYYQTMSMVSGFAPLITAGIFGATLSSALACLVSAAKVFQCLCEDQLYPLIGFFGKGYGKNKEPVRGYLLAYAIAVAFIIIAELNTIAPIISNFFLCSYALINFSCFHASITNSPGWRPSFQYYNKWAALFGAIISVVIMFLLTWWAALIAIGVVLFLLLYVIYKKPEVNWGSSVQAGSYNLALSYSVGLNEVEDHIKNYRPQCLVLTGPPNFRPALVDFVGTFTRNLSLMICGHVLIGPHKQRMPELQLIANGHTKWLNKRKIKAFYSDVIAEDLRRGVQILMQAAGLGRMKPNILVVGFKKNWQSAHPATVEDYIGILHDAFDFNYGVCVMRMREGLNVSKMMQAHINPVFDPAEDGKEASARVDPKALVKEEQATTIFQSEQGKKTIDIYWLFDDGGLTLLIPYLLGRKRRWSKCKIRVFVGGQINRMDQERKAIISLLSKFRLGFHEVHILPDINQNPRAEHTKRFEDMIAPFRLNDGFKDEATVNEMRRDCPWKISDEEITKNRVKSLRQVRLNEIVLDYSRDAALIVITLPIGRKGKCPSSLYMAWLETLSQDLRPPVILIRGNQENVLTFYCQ
Test: 125I- uptake assay, hNCC(N149A) variant
Assay type: cell-based
Conditions: N149A substitution; for IC50: iodide uptake
Procedure: HEK293S cell lines, cultured in 293 Freestyle medium (Life Technologies; plus 10% fetal bovine serum), stably expressing hNCC and its variants were generated following published protocols. Cells were transfected using Lipofectamine 3000 (Invitrogen) with a pSBbi-RP-based plasmid containing hNCC or its variants and the SB100X vector. Puromycin (2 μg/mL; Gemini Bio-Products) was used for selection of stable cell lines.
To prepare for the uptake experiment, cells were plated at 0.5 × 10^6 cells/well in 24-well plates one day in advance. To activate NCC, cells were treated with a chloride-free hypotonic solution composed of 67.5 mM sodium-, 2.5 mM potassium-, 0.25 mM magnesium-, and 0.25 mM calcium-gluconate, as well as 7.5 mM HEPES pH 7.4 (buffered using Tris) at 37 °C for 10 min[72]. After the activation step, the experiments were carried out at room temperature. Ten minutes before the start of ^125I^− uptake, 70 μM Bumetanide (Thermo Scientific Chemicals) and 100 μM 4,4′-diisothiocyanatostilbene-2,2′-disulfonic acid (DIDS; Sigma) were added to suppress background iodide uptake activity. Indicated thiazide diuretics were also added to the indicated concentrations 10 min before the start of ^125I^− uptake. The original buffer was switched to an uptake buffer composed of 135 mM Na-gluconate, 5 mM K-gluconate, 1 mM Mg-gluconate, 1 mM Ca-gluconate, 70 μM bumetanide, 100 μM DIDS, 1 mM NaI, 0.25 μCi/ml Na^125I (American Radiolabeled Chemicals, Inc.), and 15 mM HEPES pH 7.4 (buffered using Tris), in the presence or absence of thiazide diuretics to initiate ^125I^− uptake. The ^125I^− uptake process lasted 1 h and was stopped by two rapid washes using ice-cold 110 mM MgCl2. Cells lysed using 1% sodium dodecyl sulfate (SDS) were analyzed by scintillation counting.
To calculate the fold change of the half-maximal inhibitory concentration (IC50) between hNCC(WT) and different hNCC variants, individual dose-response curves were normalized first using the smallest mean and the value of the lowest concentration as 0% and 100%, respectively. The normalized data were then fitted using the “EC50 shift” nonlinear regression in GraphPad Prism 10 with the shared EC50Control assigned to be the IC50 of hNCC(WT). The following constraints were used in the EC50 shift analysis. The EC50Control was set to be shared across all curves under analysis and constrained to be greater than 0. The EC50Ratio was constrained to be greater than 0. The bottom, top, and HillSlope were constrained to be 0, 100, and −1, respectively. For Fig. 1f, g and Supplementary Fig. 2d, GraphPad Prism 10 was used to perform curve fitting and IC50 calculation for normalized data using y = 100/(1 + (x/IC50)).

SMILES | fold less sensitive than hNCC(WT) | IC50 [µM]
CC1Cc2ccccc2N1NC(=O)c1ccc(Cl)c(S(N)(=O)=O)c1 (stereo not shown) [indapamide] | approximately 27 fold | 0.34
NS(=O)(=O)c1cc(C2(O)NC(=O)c3ccccc32)ccc1Cl (stereo not shown) [chlorthalidone] | ~95 fold | 2.2
